We go through 14 molecules from patent publication US5342974A, “Halogenated anthraquinone and their use as near infrared rays absorbing optical filters” (Mitsui Toatsu Chemicals, Incorporated, priority 1987, dated 1994).

The first data set can be described thus: Transmittance at 860 nm of the product dissolved in chloroform. The format is physicochemical. Conditions: 860 nm; chloroform; product/chloroform=4 mg/100 ml. From the text: In order to use colorants consisted in such optical filters, fairly high purity is required. However conventional near infrared rays absorbing colorants have low purity and inadequate absorption characteristics and thus can scarecely be used. Particularly in case of a 1,4,5,8-tetraanilidoanthraquinone, the allowable limit of its transmittance in the vicinity of 860 nm is at a level of about 95 to about 96% (a concentration of the dissolved colorant at the time of the transmittance measurement is 4 mg per 100 ml of chloroform). If its transmittance is below this level, the transmission of semiconductor laser beams is hindered noticeably, and therefore it is difficult to use such a colorant as a near infrared rays absorbing filter for measuring equipment and the like where particularly high accuracy is required.
In general, laser beams used for the near infrared rays absorbing filters have a wavelength of 830 nm or more, but the wavelength depends upon use applications. In the examples described following, the most usual wavelength of about 860 nm was used to measure the transmittance of compounds represented by the formula (I), and the estimation was made by comparing absorption wave shapes.
A mixture of 10.87 parts of 99%-purity 1,4,5,8-tetrachloroanthraquinone recrystallized from chlorobenzene, 27.2 parts of p-toluidine, 31.3 parts of p-chloroaniline, 13.4 parts of potasssium acetate, 1.24 parts of copper sulfate and 3.41 parts of benzyl alcohol was heated 130° C. under a nitrogen gas flow and the reaction mixture was then maintained at this temperature for 6.5 hours. Afterward, the reaction mixture was cooled to 70° C. and was then poured into 217 parts of ethanol, followed by filtration, ethanol washing, water washing and drying. The resultant crude product was then subjected to recrystallization from pyridine, thereby obtaining 14.2 parts of desired 1-(p-chloroanilido)-4,5,8-tris(p-methylanilido)anthraquinone (yield=70%) in high purity. By the use of a high-speed liquid chromatography (made by Shimadzu Seisakusho Ltd., SHIM-PACK CLC-ODS column, acetonitrile development, detection at 254 nm), it was confirmed that the purity of the product was 99.5%. In addition, the transmittance at 860 nm of the product in chloroform was 99% (product/chloroform=4 mg/100 ml).
The same procedure as in Example 1 or 3 was repeated to synthesize the compounds shown in Table 1, and yield, purity and transmittance at 860 nm of each product were then measured. The respective substituents A, B, C and D in the table correspond to those of formula (I).
*The transmittance was measured at 860 nm in chloroform.
As to `CCCCc1ccc(Nc2ccc(Nc3ccc(Cl)cc3)c3c2C(=O)c2c(Nc4ccc(CCCC)cc4)ccc(Nc4ccc(CCCC)cc4)c2C3=O)cc1` [Example 2, 1-(p-chloroanilido)-4,5,8-tris(p-n-butylanilido)anthraquinone], the “transmittance at 860 nm of the product in chloroform” value worked out at 99.2%.
On the same count and under the same terms, for `Cc1ccc(Nc2ccc(Nc3ccc(C)cc3)c3c2C(=O)c2c(Nc4ccc(C)cc4)ccc(Nc4ccc(Cl)cc4)c2C3=O)cc1` [Example 1, 1-(p-chloroanilido)-4,5,8-tris(p-methylanilido)anthraquinone] the value was 99%; for `Cc1ccc(Nc2ccc(Nc3ccc(C)cc3)c3c2C(=O)c2c(Nc4ccc(Cl)cc4)ccc(Nc4ccc(Cl)cc4)c2C3=O)cc1` [Example 3, 1,4-bis(p-chloroanilido)-5,8-bis(p-methylanilido)anthraquinone], 99.6%; for `Cc1ccc(Nc2ccc(Nc3ccc(C)cc3)c3c2C(=O)c2c(Nc4ccc(C)cc4)ccc(Nc4ccc(C)cc4)c2C3=O)cc1` [Comparative Example 1, 1,4,5,8-tetrakis(p-methylanilido)anthraquinone, reference compound], 99%.

Staying with this data set, now noted: measured at 860 nm in chloroform (Table 1).
Regarding `Cc1ccc(Nc2ccc(Nc3ccc(C)cc3)c3c2C(=O)c2c(Nc4ccc(C)cc4)ccc(Nc4cccc(Br)c4)c2C3=O)cc1` [Example 11], the “Transmittance*” value is 98.2%.
Turning to `Cc1ccc(Nc2ccc(Nc3ccc(Cl)cc3)c3c2C(=O)c2c(Nc4ccc(C5CCCCC5)cc4)ccc(Nc4ccc(C)cc4)c2C3=O)cc1` [Example 9], the “Transmittance*” value came to 99.5%.
Same read-out and setting: next, `O=C1c2c(Nc3ccc(Cl)cc3)ccc(Nc3ccc(C4CCCCC4)cc3)c2C(=O)c2c(Nc3ccc(C4CCCCC4)cc3)ccc(Nc3ccc(C4CCCCC4)cc3)c21` [Example 7]: 99.2%.
The same measure, in the same setting: next, `O=C1c2c(Nc3ccc(O)cc3)ccc(Nc3ccc(O)cc3)c2C(=O)c2c(Nc3ccc(Cl)cc3)ccc(Nc3ccc(Cl)cc3)c21` [Example 8]: 98.5%; `Cc1ccc(Nc2ccc(Nc3ccc(C)cc3)c3c2C(=O)c2c(Nc4ccc(C)cc4)ccc(Nc4ccc(F)cc4)c2C3=O)cc1` [Example 10]: 99.2%.
Same read-out and setting: for `COc1ccc(Nc2ccc(Nc3ccc(Cl)cc3)c3c2C(=O)c2c(Nc4ccc(OC)cc4)ccc(Nc4ccc(OC)cc4)c2C3=O)cc1` [Example 5] the value was 98.9%; for `O=C1c2c(Nc3ccc(Cl)cc3)ccc(Nc3ccc(Cl)cc3)c2C(=O)c2c(Nc3ccc(Cl)cc3)ccc(Nc3ccc(Cl)cc3)c21` [Example 6], 100%.
In the case of `COc1ccc(Nc2ccc(Nc3ccc(OC)cc3)c3c2C(=O)c2c(Nc4ccc(OC)cc4)ccc(Nc4cccc(F)c4)c2C3=O)cc1` [Example 12], the “Transmittance*” value is reported as 99.6%.
The same measure, in the same setting: next, `Cc1ccc(Nc2ccc(Nc3ccc(C4CCCCC4)cc3)c3c2C(=O)c2c(Nc4ccc(Br)cc4)ccc(Nc4ccc(C5CCCCC5)cc4)c2C3=O)cc1` [Example 13]: 99.1%; `O=C1c2c(Nc3ccccc3)ccc(Nc3ccccc3)c2C(=O)c2c(Nc3ccc(Cl)cc3)ccc(Nc3ccccc3)c21` [Example 4]: 98.8%.

The next data set is described as follows: Transmittance-versus-wavelength curve in chloroform (FIG. 1), judged as a near infrared filter. The format is physicochemical. Conditions: curve 3 of FIG. 1. From the text: FIG. 1 is a graph illustrating transmittance to wavelength of a solution in chloroform of the compounds of Examples 1 and 3 and Comparative Example 1, in which carves 1, 2 and 3 are the absorption curves of the compounds of Example 1, Example 3 and Comparative Example i respectively.
In the anthraquinone of present invention, at least one of four anilido benzene rings is substituted by a halogen atom such as chlorine, fluorine and bromine, which preferably is in the p-position. The anthraquinone bearing a halogen atom realizes a wave shape of the light absorption of the absorption curves of these compounds render them very suitable for near infrared rays absorbing filters. That is, the anthraquinone bearing a halogen atom can mostly absorb the light in the wavelength range of 700 to 800 nm and realize the transmittance curve which is steeper slope in vicinity of 800 nm than one of other anthraquinone bearing no halogen atom.
In general, laser beams used for the near infrared rays absorbing filters have a wavelength of 830 nm or more, but the wavelength depends upon use applications. In the examples described following, the most usual wavelength of about 860 nm was used to measure the transmittance of compounds represented by the formula (I), and the estimation was made by comparing absorption wave shapes. […]
For the molecule `Cc1ccc(Nc2ccc(Nc3ccc(C)cc3)c3c2C(=O)c2c(Nc4ccc(C)cc4)ccc(Nc4ccc(C)cc4)c2C3=O)cc1` [Comparative Example 1, 1,4,5,8-tetrakis(p-methylanilido)anthraquinone, reference compound], the “transmission of the product in a 800-830 wavelength range” value was “poor”.
